# Values of other authors, collected in US20030158237A1, “Combination of antioxidant substances for the treatment of alzheimer's disease” (priority 2001, published 2003).
# What was measured:
# isolated LDL = details: 0.025-0.3 mg/l added to isolated LDL; dose dependent
# [1] = tested on: NF-kappa B binding induced by ceramide; details: in comparison with N-acetylcystein, acetate d-alpha-tocopherol, ascorbic acid
# [2] = tested on: DNA fragmentation induced by low-dose t-BuOOH; details: mouse
# 341 patients = details: single-agent therapy, 2 years; vitamin E 2,000 UI/daily, selegiline 10 mg daily
# [3] = tested on: hippocampal cell cultures
compound,measurement,setting,value
"O=C(O)C=Cc1ccc(O)c(O)c1 [caffeic acid, 3-(3,4-Dihydroxyphenyl)-2-propenoic acid]",time of oxidation of LDL,isolated LDL,prolonged
same,activity of the NF-kappa B binding induced by ceramide,[1],inhibits significantly
same,apoptotic response induced by ceramide,[1],inhibits significantly
NC(=O)c1cccnc1 [nicotinamide],DNA fragmentation,[2],able to prevent DNA fragmentation
C#CCN(C)[C@H](C)Cc1ccccc1 [selegiline],retarded cognitive deterioration,341 patients,25%
vitamin E,adverse effects with high doses,3000 IU,"indigestion, gastric distress, diarrhea and severe cramps"
same,adverse symptoms (uncommon),in vivo,"cataract, haemorrhage risk in patient with vitamin K deficiency, and syncope"
same,beta A4 induced cell death,[3],reduces beta A4 induced cell death
same,retarded cognitive deterioration,341 patients,25%
